Assay results taken from PubChem BioAssay AID248 (DTP/NCI, 2004).
“And” between values parts separate entries of the source, which are not always exact repeats. Equal values may be shown once. Toxic doses and inconclusive results are not listed. Cut-off read from the data, not from the text of the source: active = T/C of 150% or more; inactive = T/C below 125%.

Test system: L1210 leukemia ip in BDF1 mice, survival T/C
Experiment: NCI In Vivo Anticancer Drug Screen. Data for tumor model L1210 Leukemia (intraperitoneal) in B6D2F1 (BDF1) mice
Settings: endpoint: mean survival time, higher = longer survival
Procedure: The antitumor activity of compounds was measured in mice bearing transplantable tumors. Survival or tumor size were measured and the results are expressed as the measurement made in the treated group (T) divided by the measurement made in the vehicle treated control group (C). The tumor model used in this assay is L1210 Leukemia (intraperitoneal) in B6D2F1 (BDF1) mice

[1] = dose: 100.0 mg/kg/injection, schedule: Q04DX003 (ip), vehicle: saline with Tween-80
[2] = dose: 200.0 mg/kg/injection, schedule: Q04DX003 (ip), vehicle: saline with Tween-80
[3] = dose: 400.0 mg/kg/injection, schedule: Q04DX003 (ip), vehicle: saline with Tween-80
[4] = dose: 100.0 mg/kg/injection, schedule: Q04DX002 (ip), vehicle: saline
[5] = dose: 200.0 mg/kg/injection, schedule: Q04DX002 (ip), vehicle: saline
[6] = dose: 100.0 mg/kg/injection, schedule: Q01DX001 (ip), vehicle: saline
[7] = dose: 200.0 mg/kg/injection, schedule: Q01DX001 (ip), vehicle: saline
[8] = dose: 100.0 mg/kg/injection, schedule: Q04DX002 (ip), vehicle: saline with Tween-80
[9] = dose: 100.0 mg/kg/injection, schedule: Q04DX003 (ip), vehicle: saline
[10] = dose: 200.0 mg/kg/injection, schedule: Q04DX003 (ip), vehicle: saline
[11] = dose: 400.0 mg/kg/injection, schedule: Q04DX003 (ip), vehicle: saline

Measured: T/C

NCc1cccc(NC(=O)COc2cccc(Cl)c2)c1
inactive: dose: 25.0 mg/kg/injection, schedule: Q04DX002 (ip), vehicle: Klucel (hydroxypropylcellulose) (HPC) 100 % of control | dose: 50.0 mg/kg/injection, schedule: Q04DX002 (ip), vehicle: Klucel (hydroxypropylcellulose) (HPC) 111 % of control | dose: 100.0 mg/kg/injection, schedule: Q04DX002 (ip), vehicle: Klucel (hydroxypropylcellulose) (HPC) 100 % of control

NC(=O)NC(N)=S
inactive: [1] 99 % of control | [2] 103 % of control | [3] 103 % of control

Cc1cc([N+](=O)[O-])ccc1NC(=O)C(Br)C(Br)C(=O)O (stereo unspecified)
inactive: dose: 25.0 mg/kg/injection, schedule: Q01DX009 (ip), vehicle: other 101 % of control | dose: 50.0 mg/kg/injection, schedule: Q01DX009 (ip), vehicle: other 102 % of control | dose: 100.0 mg/kg/injection, schedule: Q01DX009 (ip), vehicle: other 93 % of control and 94 % of control

CC1(C)N=C1c1ccccc1
inactive: [4] 98 % of control | [5] 117 % of control

O=C1NCC2(CCCCCC2)O1
inactive: [6] 104 % of control | [7] 108 % of control

C=CCNC(=O)c1ccccc1
inactive: dose: 25.0 mg/kg/injection, schedule: Q04DX002 (ip), vehicle: saline with Tween-80 97 % of control | dose: 50.0 mg/kg/injection, schedule: Q04DX002 (ip), vehicle: saline with Tween-80 93 % of control | [8] 111 % of control and 91 % of control

O=C(c1ccccc1)C1CCCS1(=O)=O (stereo unspecified)
inactive: dose: 100.0 mg/kg/injection, schedule: Q04DX003 (ip), vehicle: Klucel (hydroxypropylcellulose) (HPC) 100 % of control | dose: 200.0 mg/kg/injection, schedule: Q01DX009 (ip), vehicle: Klucel (hydroxypropylcellulose) (HPC) 98 % of control | dose: 200.0 mg/kg/injection, schedule: Q04DX003 (ip), vehicle: Klucel (hydroxypropylcellulose) (HPC) 96 % of control | dose: 400.0 mg/kg/injection, schedule: Q01DX009 (ip), vehicle: Klucel (hydroxypropylcellulose) (HPC) 97 % of control | dose: 400.0 mg/kg/injection, schedule: Q04DX003 (ip), vehicle: Klucel (hydroxypropylcellulose) (HPC) 100 % of control

CCOC(=O)Cc1c(C)c2cc(C(=O)c3ccccc3)c(O)cc2oc1=O
inactive: [6] 98 % of control | [7] 96 % of control | dose: 400.0 mg/kg/injection, schedule: Q01DX001 (ip), vehicle: saline 93 % of control

Cc1cc2c(cc1C)C(=O)CCC2
inactive: dose: 100.0 mg/kg/injection, schedule: Q01DX001 (ip), vehicle: saline with Tween-80 97 % of control | dose: 100.0 mg/kg/injection, schedule: Q01DX009 (ip), vehicle: saline with Tween-80 109 % of control | [8] 88 % of control | [1] 97 % of control | dose: 200.0 mg/kg/injection, schedule: Q01DX001 (ip), vehicle: saline with Tween-80 97 % of control | dose: 200.0 mg/kg/injection, schedule: Q01DX009 (ip), vehicle: saline with Tween-80 109 % of control | dose: 200.0 mg/kg/injection, schedule: Q04DX002 (ip), vehicle: saline with Tween-80 90 % of control | [2] 98 % of control | dose: 400.0 mg/kg/injection, schedule: Q01DX001 (ip), vehicle: saline with Tween-80 91 % of control | dose: 400.0 mg/kg/injection, schedule: Q01DX009 (ip), vehicle: saline with Tween-80 115 % of control | dose: 400.0 mg/kg/injection, schedule: Q04DX002 (ip), vehicle: saline with Tween-80 90 % of control | [3] 95 % of control

O=C(COc1cc(Cl)c(Cl)cc1Cl)Nc1ccccc1
inactive: [4] 92 % of control | [5] 100 % of control | dose: 400.0 mg/kg/injection, schedule: Q04DX002 (ip), vehicle: saline 103 % of control

CC12CC3CC(Br)(C1)CC(C(=O)O)(C3)C2 (stereo unspecified)
inactive: dose: 50.0 mg/kg/injection, schedule: Q01DX009 (ip), vehicle: saline 103 % of control | dose: 100.0 mg/kg/injection, schedule: Q01DX009 (ip), vehicle: saline 96 % of control | [9] 103 % of control | dose: 200.0 mg/kg/injection, schedule: Q01DX009 (ip), vehicle: saline 91 % of control | [10] 101 % of control | [11] 110 % of control

ClCCCCC(Cl)(Cl)Cl
inactive: dose: 75.0 mg/kg/injection, schedule: Q01DX009 (ip), vehicle: saline 93 % of control | [9] 102 % of control | dose: 150.0 mg/kg/injection, schedule: Q01DX009 (ip), vehicle: saline 91 % of control | [10] 98 % of control | dose: 300.0 mg/kg/injection, schedule: Q01DX009 (ip), vehicle: saline 90 % of control | [11] 108 % of control
